# Assays:
# [1] = target: T1, Human adrenergic α2B receptor (Homo sapiens, UniProt P18089); test: Radioligand binding, adrenergic α2B (Protocol Group B); parameters: purchased Milipore (Millipore); details: for Percentage inhibition of ligand binding, Adrenergic α2B, 0.1 nM: 0.1 nM compound, 0.0001 µM; for Percentage inhibition of ligand binding, Adrenergic α2B, 0.32 nM: 0.32 nM compound, 0.00032 µM; for Percentage inhibition of ligand binding, Adrenergic α2B, 1 nM: 1 nM compound, 0.001 µM; for Percentage inhibition of ligand binding, Adrenergic α2B, 3.2 nM: 3.2 nM compound, 0.0032 µM; for inhibition at 0.01 µM / Percentage inhibition of ligand binding, Adrenergic α2B (10 nM): 10 nM compound; for inhibition at 0.01 µM / inhibition at 0.03 µM / inhibition at 0.1 µM / Ki / Percentage inhibition of ligand binding, Adrenergic α2B (10 nM) / Percentage inhibition of ligand binding, Adrenergic α2B (30 nM) / Percentage inhibition of ligand binding, Adrenergic α2B (0.1 μM): Protocol Group B; for inhibition at 0.01 µM: read-out: Percentage inhibition of ligand binding, Adrenergic α2B (10 nM); for inhibition at 0.03 µM / Percentage inhibition of ligand binding, Adrenergic α2B (30 nM): 30 nM compound; for inhibition at 0.03 µM: read-out: Percentage inhibition of ligand binding, Adrenergic α2B (30 nM); for inhibition at 0.1 µM / Percentage inhibition of ligand binding, Adrenergic α2B (0.1 μM): 0.1 μM compound; for inhibition at 0.1 µM: read-out: Percentage inhibition of ligand binding, Adrenergic α2B (0.1 μM); for Ki: estimated Ki, read-out: Ki α2B; for Percentage inhibition of ligand binding, Adrenergic α2B (10 nM): 0.01 µM
# T1 sequence (P18089 1-450): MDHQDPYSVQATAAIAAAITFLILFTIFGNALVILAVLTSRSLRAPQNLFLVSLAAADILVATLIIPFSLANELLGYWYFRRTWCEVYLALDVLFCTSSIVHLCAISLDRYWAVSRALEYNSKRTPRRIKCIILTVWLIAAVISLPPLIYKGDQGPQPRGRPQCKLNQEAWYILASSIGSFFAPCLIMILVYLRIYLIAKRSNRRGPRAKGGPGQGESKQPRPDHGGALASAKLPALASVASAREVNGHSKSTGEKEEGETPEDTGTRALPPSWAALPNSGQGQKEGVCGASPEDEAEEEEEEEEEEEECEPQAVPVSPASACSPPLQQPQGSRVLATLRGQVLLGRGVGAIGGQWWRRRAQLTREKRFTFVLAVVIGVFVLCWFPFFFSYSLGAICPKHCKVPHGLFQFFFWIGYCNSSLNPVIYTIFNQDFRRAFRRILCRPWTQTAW
# In short: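 Recombinant human α2B receptor membranes incubated with compounds in 50 mM Tris-HCl pH 7.4, 5 mM MgCl2, 1 mM CaCl2, 0.2% BSA, 1% DMSO vehicle. Non-specific binding defined with 10 μM rauwolscine. Values are percent inhibition of specific binding or estimated Ki.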
# [2] = target: T2, Human adrenergic α2A receptor (Homo sapiens, UniProt P08913); test: β-Arrestin GPCR functional assay, adrenergic α2A (Protocol B); format: cell-based; details: for IC50: β-arrestin, antagonist vs nor-epinephrine EC80
# T2 sequence (P08913 1-465): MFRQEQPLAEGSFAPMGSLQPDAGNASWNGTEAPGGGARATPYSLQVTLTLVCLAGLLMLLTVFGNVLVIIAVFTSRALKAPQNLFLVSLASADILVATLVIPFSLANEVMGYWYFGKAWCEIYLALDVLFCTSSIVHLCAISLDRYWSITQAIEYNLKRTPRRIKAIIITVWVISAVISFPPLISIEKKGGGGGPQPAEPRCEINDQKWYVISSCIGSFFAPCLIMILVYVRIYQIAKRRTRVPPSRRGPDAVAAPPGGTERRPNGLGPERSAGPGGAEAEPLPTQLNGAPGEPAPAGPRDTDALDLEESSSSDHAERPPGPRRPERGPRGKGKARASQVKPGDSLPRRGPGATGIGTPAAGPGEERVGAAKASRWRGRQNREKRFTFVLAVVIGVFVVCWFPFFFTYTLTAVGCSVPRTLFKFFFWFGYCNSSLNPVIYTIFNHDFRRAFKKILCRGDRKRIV
# In short: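 PathHunter CHO cells overexpressing human α2A receptor were preincubated with compounds (1% DMSO final) for 30 min at 37 °C, then stimulated 90 min with norepinephrine at EC80 (270 nM). β-Arrestin recruitment read by chemiluminescence after 60 min detection; reported as % inhibition or IC50.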
# [3] = target: T3, Human adrenergic α1B receptor (Homo sapiens, UniProt P35368); test: β-Arrestin GPCR functional assay, adrenergic α1B (Protocol B); format: cell-based; details: for IC50: β-arrestin, antagonist vs nor-epinephrine EC80
# T3 sequence (P35368 1-520): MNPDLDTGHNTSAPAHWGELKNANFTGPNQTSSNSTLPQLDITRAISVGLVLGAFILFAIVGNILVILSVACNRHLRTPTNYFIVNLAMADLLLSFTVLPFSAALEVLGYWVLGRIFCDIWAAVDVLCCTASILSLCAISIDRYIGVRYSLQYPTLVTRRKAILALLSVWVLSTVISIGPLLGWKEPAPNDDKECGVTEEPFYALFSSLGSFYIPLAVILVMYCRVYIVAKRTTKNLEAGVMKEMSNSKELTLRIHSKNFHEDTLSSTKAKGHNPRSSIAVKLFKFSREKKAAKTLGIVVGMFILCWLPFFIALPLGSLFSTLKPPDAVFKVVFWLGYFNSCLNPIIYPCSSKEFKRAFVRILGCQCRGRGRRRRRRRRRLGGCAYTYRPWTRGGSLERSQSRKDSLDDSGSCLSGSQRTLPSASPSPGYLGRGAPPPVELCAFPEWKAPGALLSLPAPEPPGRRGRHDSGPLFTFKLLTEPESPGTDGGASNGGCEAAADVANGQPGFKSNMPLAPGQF
# Protocol: To evaluate the activity of compounds in β-Arrestin GPCR functional assays, recombinant CHO cell line (DiscoveRX), over expressed with human adrenergic α1B receptor were used. The experiment was done with a kit of DiscoveRX as per recommended protocol of the supplier. Cells were harvested from culture flask using cell dissociation solution (CDS) and plated at a density of 12,000 cells/well in CP reagent (supplied with the kit) in a half area 96-well white polystyrene plate. After 24 h incubation at 37° C., compounds at various concentrations in 1% (final) DMSO were charged to the cells for 30 min at 37° C. Active nor-epinephrine (-NE) at its EC80 concentrations (50 nM) were then added to the cells and incubated for another 90 min at 37° C. Detection mix was prepared by mixing Path Hunter cell assay buffer, Emerald II solution and Galactone star solution in a ratio of 19:5:1 and incubated with the cells for 60 min at RT in the dark. The reading was taken in Envision at luminescence mode. Biochemical assay results are presented as the percent Inhibition in Table B2a, or IC50 values in Table B2b.
# [4] = 0.3 μM compound, nor-epinephrine at EC80 (50 nM)
Compound,inhibition at 0.01 µM [1] [%],inhibition at 0.03 µM [1] [%],inhibition at 0.1 µM [1] [%],Ki [1] [nM],IC50 [2] [nM],IC50 [3] [nM],"Percentage inhibition of ligand binding, Adrenergic α2B (10 nM) [1] [%]","Percentage inhibition of ligand binding, Adrenergic α2B (30 nM) ([1]; 0.03 µM) [%]","Percentage inhibition of ligand binding, Adrenergic α2B (0.1 μM) [1] [%]",also measured
"Cc1cc(C)c2c(c1)c1c(n2CC(C)(O)c2ccncc2)CCN2CCCC12 (single isomer, unassigned) [19a]",94,99,100,1,1260,107,–,–,–,"inhibition at 32 pM ([1]; 0.032 nM compound, concentration series, read-out: Percentage inhibition of ligand binding, Adrenergic α2B, 0.032 nM): 3%; Percentage inhibition of ligand binding, Adrenergic α2B, 0.1 nM ([1]; concentration series): 8%; Percentage inhibition of ligand binding, Adrenergic α2B, 0.32 nM ([1]; concentration series): 9%; Percentage inhibition of ligand binding, Adrenergic α2B, 1 nM ([1]; concentration series): 18%; Percentage inhibition of ligand binding, Adrenergic α2B, 3.2 nM ([1]; concentration series): 64%; inhibition at 0.032 µM ([1]; 0.032 μM compound, concentration series, read-out: Percentage inhibition of ligand binding, Adrenergic α2B, 0.032 μM): 99%; inhibition at 0.1 µM ([2]; 0.1 μM compound, nor-epinephrine at EC80 (270 nM), read-out: Percentage inhibition, Adrenergic α2A): 13%; inhibition at 0.3 µM ([2]; 0.3 μM compound, nor-epinephrine at EC80 (270 nM), read-out: Percentage inhibition, Adrenergic α2A): 23%; inhibition at 0.1 µM ([3]; 0.1 μM compound, nor-epinephrine at EC80 (50 nM), read-out: Percentage inhibition, Adrenergic α1B): 45%; Percentage inhibition, Adrenergic α1B [3, 4]: 74%"
"Cc1cc(C)c2c(c1)c1c(n2CC(C)(O)c2ccncc2)CCN2CCCC12 (single isomer, unassigned) [19b]",–,–,–,2.4,5010,351,91,97,99,"Percentage inhibition of ligand binding, Adrenergic α2B, 0.032 nM ([1]; 0.032 nM compound, concentration series, 32 pM): 6%; Percentage inhibition of ligand binding, Adrenergic α2B, 0.1 nM ([1]; concentration series): 0%; Percentage inhibition of ligand binding, Adrenergic α2B, 0.32 nM ([1]; concentration series): 2%; Percentage inhibition of ligand binding, Adrenergic α2B, 1 nM ([1]; concentration series): 4%; Percentage inhibition of ligand binding, Adrenergic α2B, 3.2 nM ([1]; concentration series): 31%; Percentage inhibition of ligand binding, Adrenergic α2B, 0.032 μM ([1]; 0.032 μM compound, concentration series, 0.032 µM): 95%; Percentage inhibition, Adrenergic α2A ([2]; 0.1 μM compound, nor-epinephrine at EC80 (270 nM)): 24%; Percentage inhibition, Adrenergic α2A ([2]; 0.3 μM compound, nor-epinephrine at EC80 (270 nM)): 20%; Percentage inhibition, Adrenergic α1B ([3]; 0.1 μM compound, nor-epinephrine at EC80 (50 nM)): 25%; Percentage inhibition, Adrenergic α1B [3, 4]: 52%"
"CC(O)(Cn1c2c(c3cc(F)ccc31)C1CCCN1CC2)c1ccncc1 (single isomer, unassigned) [31a]",72,90,96,2.2,11400,982,–,–,–,–
"CC(O)(Cn1c2c(c3cc(F)ccc31)C1CCCN1CC2)c1ccncc1 (single isomer, unassigned) [31b]",–,–,–,2.6,11300,782,68,–,97,"Percentage inhibition of ligand binding, Adrenergic α2B (30 nM) [1]: 90%"
"Cc1ccc2c(c1)c1c(n2CC(OC2CCCC2)c2ccncc2)CCN(C)C1 (single isomer, unassigned) [35a]",63,86,96,2.9,2390,672,–,–,–,–
"CCCOC(Cn1c2c(c3cc(C)ccc31)CN(C)CC2)c1ccncc1 (single isomer, unassigned) [42a]",74,89,97,2.3,3310,636,–,–,–,–
"CCCOC(Cn1c2c(c3cc(C)ccc31)CN(C)CC2)c1ccncc1 (single isomer, unassigned) [42b]",–,–,–,1.3,5220,1140,86,97,100,–
"CCOC(Cn1c2c(c3cc(C)ccc31)CN(C)CC2)c1ccncc1 (single isomer, unassigned) [43a]",64,85,96,2.8,3570,670,–,–,–,–

# Continued, in another order:
inhibition at 0.01 µM [1] [%],inhibition at 0.03 µM [1] [%],inhibition at 0.1 µM [1] [%],Ki [1] [nM],IC50 [2] [nM],IC50 [3] [nM],"Percentage inhibition of ligand binding, Adrenergic α2B (10 nM) [1] [%]","Percentage inhibition of ligand binding, Adrenergic α2B (30 nM) ([1]; 0.03 µM) [%]","Percentage inhibition of ligand binding, Adrenergic α2B (0.1 μM) [1] [%]",Compound,also measured
–,–,–,2.1,7340,1090,71,89,98,"CCOC(Cn1c2c(c3cc(C)ccc31)CN(C)CC2)c1ccncc1 (single isomer, unassigned) [43b]",–
–,87,95,2.2,5180,684,71,–,–,"Cc1cc(C)c2c(c1)c1c(n2CC(C)(O)c2cccnc2)CCN2CCCC12 (single isomer, unassigned) [44a]",–
–,–,–,0.81,909,252,98,98,100,"Cc1cc(C)c2c(c1)c1c(n2CC(C)(O)c2cccnc2)CCN2CCCC12 (single isomer, unassigned) [44b]",–
93,94,94,1.25,1110,45,–,–,–,"Cc1ccc2c(c1)c1c(n2CC(C)(O)c2ccnc(F)c2)CCN2CCCC12 (single isomer, unassigned) [48a]",–
–,–,–,0.89,491,123,92,93,91,"Cc1ccc2c(c1)c1c(n2CC(C)(O)c2ccnc(F)c2)CCN2CCCC12 (single isomer, unassigned) [48b]",–
95,99,100,0.75,713,47,–,–,–,"Cc1cc2c3c(n(CC(C)(O)c4ccncc4)c2cc1Cl)CCN1CCCC31 (single isomer, unassigned) [50a]",–

# — patent US20150315188A1, “COMPOUNDS AND METHODS FOR TREATMENT OF HYPERTENSION” (MEDIVATION TECHNOLOGIES, INC., priority 2012, published 2015)
